Numbered stars: 1 amine (or outer) side, 2 acyl side, 3 side chain; on linkers, the order of the positions; unused ones are H or OH. Peptide text beside a SMILES is read from it. * marks the point of attachment. C20 diacid = O=C(O)CCCCCCCCCCCCCCCCCCC(=O)*; γGlu = O=C(O)[C@H](CCC(=O)[*:2])N[*:1]
Experiments:
Rattus norvegicus [1] = assay: Reduction in food intake in Sprague-Dawley rat at 3 nmol/kg measured 24 to 48 hrs post dose relative to control; type: functional; design: scale not given: the % may be the effect or the level left
[2] = Stability in pH 7.5 buffer assessed as lag time for fibril formation at 1 uM by Thioflavin T based fluorescence assay; type: physicochemical; conditions: pH 7.5, 1 µM
Calcitonin receptor [3] = molecular target: T1, Calcitonin receptor (Homo sapiens, UniProt P30988); assay: Agonist activity at human calcitonin receptor expressed in BHK570 cells assessed as increase in intracellular cAMP concentration incubated for 3 hrs in absence of albumin by CRE luciferase reporter gene assay; type: functional, cell-based
T1 sequence (P30988 whole entry): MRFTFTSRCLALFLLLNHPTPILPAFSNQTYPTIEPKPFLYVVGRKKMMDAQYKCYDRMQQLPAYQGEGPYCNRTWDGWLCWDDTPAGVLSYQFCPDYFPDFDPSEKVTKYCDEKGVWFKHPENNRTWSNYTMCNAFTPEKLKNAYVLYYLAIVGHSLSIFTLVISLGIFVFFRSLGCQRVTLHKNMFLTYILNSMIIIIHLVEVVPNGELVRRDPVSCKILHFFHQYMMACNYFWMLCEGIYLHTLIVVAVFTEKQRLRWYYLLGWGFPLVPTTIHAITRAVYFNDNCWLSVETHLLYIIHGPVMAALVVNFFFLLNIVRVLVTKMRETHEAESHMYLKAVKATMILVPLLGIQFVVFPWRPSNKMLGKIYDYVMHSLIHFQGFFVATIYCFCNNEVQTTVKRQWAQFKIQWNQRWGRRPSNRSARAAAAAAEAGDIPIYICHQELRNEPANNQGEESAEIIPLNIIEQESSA

Calcitonin receptor [4] = molecular target: T1, Calcitonin receptor; assay: Agonist activity at human calcitonin receptor expressed in BHK570 cells assessed as increase in intracellular cAMP concentration incubated for 3 hrs in presence of 10% FBS by CRE luciferase reporter gene assay; type: functional, cell-based
[5] = molecular target: T2, Amylin receptor AMY3; CALCR/RAMP3 (Homo sapiens, UniProt O60896+P30988); assay: Agonist activity at human amylin receptor expressed in BHK570 cells co-expressing RAMP3 assessed as increase in intracellular cAMP concentration incubated for 3 hrs in absence of albumin by CRE luciferase reporter gene assay; type: functional, cell-based
T2 sequence (P30988 whole entry): T1 sequence (P30988 whole entry)
T2 sequence (O60896 whole entry): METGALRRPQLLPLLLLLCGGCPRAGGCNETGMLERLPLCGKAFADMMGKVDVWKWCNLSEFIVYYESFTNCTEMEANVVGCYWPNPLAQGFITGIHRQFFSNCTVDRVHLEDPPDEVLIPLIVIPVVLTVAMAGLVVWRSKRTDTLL

[6] = Solubility in 100 mM glycylglycine buffer at pH 3.0 incubated for 18 hrs by UPLC analysis; type: physicochemical
[7] = molecular target: T2, Amylin receptor AMY3; CALCR/RAMP3; assay: Agonist activity at human amylin receptor expressed in BHK570 cells co-expressing RAMP3 assessed as increase in intracellular cAMP concentration incubated for 3 hrs in presence of 10% FBS by CRE luciferase reporter gene assay; type: functional, cell-based
[8] = Stability in pH 7.5 buffer assessed as compound recovery at 1 uM by Thioflavin T based fluorescence assay; type: physicochemical; conditions: read-out: Drug recovery
[9] = Solubility in 100 mM bistrispropane buffer at pH 7.0 incubated for 18 hrs by UPLC analysis; type: physicochemical
[10] = Solubility in 100 mM bistrispropane buffer at pH 6.0 incubated for 18 hrs by UPLC analysis; type: physicochemical
[11] = Solubility in 100 mM bistrispropane buffer at pH 7.5 incubated for 18 hrs by UPLC analysis; type: physicochemical
Rattus norvegicus [12] = assay: Reduction in food intake in Sprague-Dawley rat at 3 nmol/kg measured 0 to 24 hrs post dose relative to control; type: functional; design: scale not given: the % may be the effect or the level left
[13] = Solubility in 100 mM bistrispropane buffer at pH 8.0 incubated for 18 hrs by UPLC analysis; type: physicochemical
[14] = Solubility in 100 mM bistrispropane buffer at pH 6.5 incubated for 18 hrs by UPLC analysis; type: physicochemical
[15] = Solubility in 100 mM glycylglycine buffer at pH 4.0 incubated for 18 hrs by UPLC analysis; type: physicochemical

Compound | Activity (Rattus norvegicus [1]) | Time [2] | EC50 (Calcitonin receptor [3]) | EC50 (Calcitonin receptor [4]) | EC50 [5] | solubility at 18 h [6] | EC50 [7] | remaining at 1 µM [8] | solubility at 18 h [9] | solubility at 18 h [10] | solubility at 18 h [11] | Activity (Rattus norvegicus [12]) | solubility at 18 h [13] | solubility at 18 h [14] | solubility at 18 h [15]
CC(C)C[C@H](NC(=O)CNC(=O)[C@H](CO)NC(=O)[C@H](C)NC(=O)CC[C@H](NC(=O)CCCCCCCCCCCCCCCCCCC(=O)O)C(=O)O)C(=O)N[C@@H](CO)C(=O)N[C@H](C(=O)N[C@@H](C)C(=O)N[C@H](C(=O)N[C@@H](CC(C)C)C(=O)NCC(=O)N[C@@H](CCCNC(=N)N)C(=O)N[C@@H](CC(C)C)C(=O)N[C@@H](CO)C(=O)N[C@@H](CCC(N)=O)C(=O)N[C@@H](CCC(=O)O)C(=O)N[C@@H](CC(C)C)C(=O)N[C@@H](Cc1cnc[nH]1)C(=O)N[C@@H](CCC(=O)O)C(=O)N[C@@H](CC(C)C)C(=O)N[C@@H](CCC(N)=O)C(=O)N[C@H](C(=O)N[C@@H](Cc1ccc(O)cc1)C(=O)N1CCC[C@H]1C(=O)N[C@@H](CCCNC(=N)N)C(=O)N[C@H](C(=O)N[C@@H](CCC(=O)O)C(=O)N[C@H](C(=O)NCC(=O)N[C@@H](CO)C(=O)NCC(=O)N[C@H](C(=O)N[C@@H](Cc1ccc(O)cc1)C(N)=O)[C@@H](C)O)[C@@H](C)O)[C@@H](C)O)[C@@H](C)O)C(C)C)[C@@H](C)O | 15% | 0 h | 0.065 nM | 0.054 nM | 0.057 nM | ≥ 200 µM | 0.105 nM | 23% |  |  |  |  |  |  | 
CC(C)C[C@H](NC(=O)CNC(=O)[C@H](CO)NC(=O)[C@H](C)NC(=O)CC[C@H](NC(=O)CCCCCCCCCCCCCCCCCCC(=O)O)C(=O)O)C(=O)N[C@@H](CO)C(=O)N[C@H](C(=O)N[C@@H](C)C(=O)N[C@@H](C)C(=O)N[C@@H](CC(C)C)C(=O)NCC(=O)N[C@@H](CCCNC(=N)N)C(=O)N[C@@H](CC(C)C)C(=O)N[C@@H](CO)C(=O)N[C@@H](CCC(N)=O)C(=O)N[C@@H](CCC(=O)O)C(=O)N[C@@H](CC(C)C)C(=O)N[C@@H](Cc1cnc[nH]1)C(=O)N[C@@H](CCC(=O)O)C(=O)N[C@@H](CC(C)C)C(=O)N[C@@H](CCC(=O)O)C(=O)N[C@H](C(=O)N[C@@H](Cc1ccc(O)cc1)C(=O)N1CCC[C@H]1C(=O)N[C@@H](CCCNC(=N)N)C(=O)N[C@H](C(=O)N[C@@H](CCC(=O)O)C(=O)N[C@H](C(=O)NCC(=O)N[C@@H](CO)C(=O)NCC(=O)N[C@H](C(=O)N[C@@H](Cc1ccc(O)cc1)C(N)=O)[C@@H](C)O)[C@@H](C)O)[C@@H](C)O)[C@@H](C)O)[C@@H](C)O ({C20 diacid-γGlu}-ASGLSTAALGRLSQELHELETYPRTETGSGTY-NH2) | 26% | > 45 h |  | 0.068 nM |  | ≥ 200 µM | 0.15 nM | 100% | ≥ 200 µM | ≥ 200 µM | ≥ 200 µM | 27% | ≥ 200 µM | ≥ 200 µM | ≥ 200 µM
CC(C)C[C@H](NC(=O)CNC(=O)[C@H](CO)NC(=O)[C@H](C)NC(=O)CC[C@H](NC(=O)CCCCCCCCCCCCCCCCCCC(=O)O)C(=O)O)C(=O)N[C@@H](CO)C(=O)N[C@H](C(=O)N[C@@H](C)C(=O)N[C@H](C(=O)N[C@@H](CC(C)C)C(=O)NCC(=O)N[C@@H](CCCNC(=N)N)C(=O)N[C@@H](CC(C)C)C(=O)N[C@@H](CO)C(=O)N[C@@H](C)C(=O)N[C@@H](CCC(=O)O)C(=O)N[C@@H](CC(C)C)C(=O)N[C@@H](Cc1cnc[nH]1)C(=O)N[C@@H](CCC(=O)O)C(=O)N[C@@H](CC(C)C)C(=O)N[C@@H](C)C(=O)N[C@H](C(=O)N[C@@H](Cc1ccc(O)cc1)C(=O)N1CCC[C@H]1C(=O)N[C@@H](CCCNC(=N)N)C(=O)N[C@H](C(=O)N[C@@H](CCC(=O)O)C(=O)N[C@H](C(=O)NCC(=O)N[C@@H](CO)C(=O)NCC(=O)N[C@H](C(=O)N[C@@H](Cc1ccc(O)cc1)C(N)=O)[C@@H](C)O)[C@@H](C)O)[C@@H](C)O)[C@@H](C)O)C(C)C)[C@@H](C)O ({C20 diacid-γGlu}-ASGLSTAVLGRLSAELHELATYPRTETGSGTY-NH2) | 28% | > 45 h | 0.07 nM | 0.053 nM |  | ≥ 200 µM | 0.122 nM | 100% | ≥ 200 µM | ≥ 200 µM | ≥ 200 µM | 26% | ≥ 200 µM | ≥ 200 µM | ≥ 200 µM
CC(C)C[C@H](NC(=O)CNC(=O)[C@H](CO)NC(=O)[C@H](C)NC(=O)CC[C@H](NC(=O)CCCCCCCCCCCCCCCCCCC(=O)O)C(=O)O)C(=O)N[C@@H](CO)C(=O)N[C@H](C(=O)N[C@@H](C)C(=O)N[C@H](C(=O)N[C@@H](CC(C)C)C(=O)NCC(=O)N[C@@H](CCCNC(=N)N)C(=O)N[C@@H](CC(C)C)C(=O)N[C@@H](CO)C(=O)N[C@@H](CCC(N)=O)C(=O)N[C@@H](CCC(=O)O)C(=O)N[C@@H](CC(C)C)C(=O)N[C@@H](Cc1cnc[nH]1)C(=O)N[C@@H](CCC(=O)O)C(=O)N[C@@H](CC(C)C)C(=O)N[C@@H](CCC(N)=O)C(=O)N[C@H](C(=O)N[C@@H](CC(C)C)C(=O)N[C@@H](CCC(N)=O)C(=O)N[C@H](C(=O)N[C@@H](Cc1ccc(O)cc1)C(=O)N1CCC[C@H]1C(=O)N[C@@H](CCCNC(=N)N)C(=O)N[C@H](C(=O)N[C@@H](CCC(=O)O)C(=O)N[C@H](C(=O)NCC(=O)N[C@@H](CO)C(=O)N[C@@H](CCC(N)=O)C(=O)N[C@H](C(=O)N[C@@H](Cc1ccc(O)cc1)C(N)=O)[C@@H](C)O)[C@@H](C)O)[C@@H](C)O)[C@@H](C)O)[C@@H](C)O)C(C)C)[C@@H](C)O ({C20 diacid-γGlu}-ASGLSTAVLGRLSQELHELQTLQTYPRTETGSQTY-NH2) | 10% | 8 h | 0.045 nM | 0.099 nM | 0.054 nM | ≥ 200 µM | 0.185 nM | 2% | ≥ 200 µM | ≥ 200 µM | ≥ 200 µM | 25% | ≥ 200 µM | ≥ 200 µM | 
CC(C)C[C@H](NC(=O)CC[C@H](NC(=O)CCCCCCCCCCCCCCCCCCC(=O)O)C(=O)O)C(=O)N[C@@H](CO)C(=O)NCC(=O)N[C@@H](CC(C)C)C(=O)N[C@@H](CO)C(=O)N[C@H](C(=O)N[C@@H](C)C(=O)N[C@H](C(=O)N[C@@H](CC(C)C)C(=O)NCC(=O)N[C@@H](CCCNC(=N)N)C(=O)N[C@@H](CC(C)C)C(=O)N[C@@H](CO)C(=O)N[C@@H](CCC(N)=O)C(=O)N[C@@H](CCC(=O)O)C(=O)N[C@@H](CC(C)C)C(=O)N[C@@H](Cc1cnc[nH]1)C(=O)N[C@@H](CCC(=O)O)C(=O)N[C@@H](CC(C)C)C(=O)N[C@@H](CCC(N)=O)C(=O)N[C@H](C(=O)N[C@@H](Cc1ccc(O)cc1)C(=O)N1CCC[C@H]1C(=O)N[C@@H](CCCNC(=N)N)C(=O)N[C@H](C(=O)N[C@@H](CCC(=O)O)C(=O)N[C@H](C(=O)NCC(=O)N[C@@H](CO)C(=O)N[C@@H](CCC(N)=O)C(=O)N[C@H](C(=O)N[C@@H](Cc1ccc(O)cc1)C(N)=O)[C@@H](C)O)[C@@H](C)O)[C@@H](C)O)[C@@H](C)O)C(C)C)[C@@H](C)O ({C20 diacid-γGlu}-LSGLSTAVLGRLSQELHELQTYPRTETGSQTY-NH2) | 21% | > 45 h |  | 0.073 nM | 0.031 nM | ≥ 200 µM | 0.14 nM | 100% | ≥ 200 µM | ≥ 200 µM | ≥ 200 µM | 36% | ≥ 200 µM | ≥ 200 µM | 

From ChEMBL document CHEMBL4420076, “Amylin and calcitonin receptor agonist” (2017)
